Measurements as given in publication PMC10298982, “Stability Characterization of the Novel Anti-Cancer HM-10/10 HDL-Mimetic Peptide” (International Journal of Molecular Sciences, 2023).
Several values for one entry are separate records, joined by “and”; a condition that tells them apart may be missing. Equal entries are not always repeated. Ends that are not written are not given here.

How the values were obtained:
in vitro [1] = details: CD-1, mouse, plasma, pH 7.4
CYP1A2 = CYP1A2 induction (enzyme activity) in single-donor human hepatocytes; type: in vitro ADME; details: for Fold Increase (Enzyme Activity) Mean: mean of three lots
Description: The transport medium was replaced with 200 μL of warm (37 °C) incubation medium (InVitroGRO HI, BioIVT Catalog No. Z99009) and the plate was placed in a humidified 5% carbon dioxide incubator at 37 °C for 24 h.
In addition, test article vehicle (PBS) was added to warm (37°C) InVitroGRO HI Medium in a 5:95 (v:v) ratio. […] The plates were removed from the incubator and the hepatocytes were prepared for the induction assay by replacing the cell culture medium with medium containing either the test article, a control inducer, or vehicle control (200 µL per well). The hepatocyte plates were returned to the cell culture incubator and incubated for 24 h.
On Day 3, induction was repeated following the same steps as described above for the previous day, and plates were returned to the cell culture incubator for an additional 24 h.
After aliquots were taken to measure test article stability, all the remaining medium from each well in the hepatocyte plate was removed, all wells were washed once using 200 μL of blank assay buffer, and then 100 μL of the 1000-fold diluted substrate solutions were added to the appropriate wells. The assay plate was returned to the humidified 5% carbon dioxide incubator at 37 °C for 1 h incubation.
At the end of the incubation time, 100 μL of mRNA lysis buffer was added to each well to stop the reaction. Fifty microliters of this reaction mixture were transferred into a new plate and quenched with 200 μL of ice-cold acetonitrile containing a CYP-specific stable labeled internal standard (250 ng/mL acetaminophen-d4, 250 ng/mL hydroxybupropion-d6, or 250 ng/mL hydroxytestosterone-d3). After removal of the aliquots from the plate for enzyme activity determination, the assay plates were sealed and stored in a −70 °C freezer until use for RT-PCR, mRNA analysis.
For the induction assay samples, an aliquot (50 µL) of the supernatant was transferred to a new plate and diluted with 100 µL Milli-Q water. For the test article stability samples, an aliquot (50 µL) of the supernatant was transferred to a new plate and diluted with 60 µL 0.1% formic acid in Milli-Q water. These samples for the enzyme activity assay and article stability test were refrigerated for storage until analysis. […]
HM1010: Induction Potential of Cytochrome P450 Enzymes
(CYP1A2, CYP2B6 and CYP3A4) Using Human Cryopreserved Hepatocytes
Testing Facility Study No.
The purpose of this in-vitro study was to determine the induction potential of HM1010 on human
cytochrome P450 (CYP) isoenzyme (1A2, 2B6 and 3A4) activity. The study design is
Matrix: Inducible cryopreserved human hepatocytes three single-donor lots
Assay Buffer: InVitroGRO KHB
Substrates: Phenacetin (1A2), Bu propion (2B6), and Testosterone (3A4)
Assay conditions: 48 hours at 37°C in humidified 5% carbon dioxide incubator
Analysis: LC-MS/MS (enzyme activity) and mRNA analysis

[2] = Metabolic stability in cryopreserved cynomolgus monkey hepatocytes; type: in vitro ADME; details: Cynomolgus monkey hepatocytes 0.5 million cells/mL
[3] = test system: Sprague-Dawley rat plasma proteins; assay: Protein binding in Sprague-Dawley rat plasma (ultracentrifugation); details: Sprague-Dawley rat plasma (K2EDTA), 2 μM
[4] = as above; details: Sprague-Dawley, rat, plasma (K2EDTA), pH 7.4
in vitro [5] = details: Sprague-Dawley, rat, plasma, pH 7.4
in vitro [6] = details: cynomolgus monkey, plasma, pH 7.4
[7] = Protein binding in CD-1 mouse plasma (ultracentrifugation); details: CD-1, mouse, plasma (K2EDTA)
[8] = test system: CD-1 mouse plasma proteins; assay: as above; details: CD-1 mouse plasma (K2EDTA); 2 μM; 2.5 h at 37 °C
CYP2C19 = CYP2C19 (Homo sapiens, UniProt P33261); details: microsomes
[9] = Metabolic stability in cryopreserved beagle dog hepatocytes; type: in vitro ADME; details: Beagle dog hepatocytes 0.5 million cells/mL; for CLint scaled: dog, hepatocytes, 2 μM
CYP2C8 = molecular target: T1, CYP2C8 (Homo sapiens, UniProt P10632); details: microsomes
T1 sequence (P10632 1-490): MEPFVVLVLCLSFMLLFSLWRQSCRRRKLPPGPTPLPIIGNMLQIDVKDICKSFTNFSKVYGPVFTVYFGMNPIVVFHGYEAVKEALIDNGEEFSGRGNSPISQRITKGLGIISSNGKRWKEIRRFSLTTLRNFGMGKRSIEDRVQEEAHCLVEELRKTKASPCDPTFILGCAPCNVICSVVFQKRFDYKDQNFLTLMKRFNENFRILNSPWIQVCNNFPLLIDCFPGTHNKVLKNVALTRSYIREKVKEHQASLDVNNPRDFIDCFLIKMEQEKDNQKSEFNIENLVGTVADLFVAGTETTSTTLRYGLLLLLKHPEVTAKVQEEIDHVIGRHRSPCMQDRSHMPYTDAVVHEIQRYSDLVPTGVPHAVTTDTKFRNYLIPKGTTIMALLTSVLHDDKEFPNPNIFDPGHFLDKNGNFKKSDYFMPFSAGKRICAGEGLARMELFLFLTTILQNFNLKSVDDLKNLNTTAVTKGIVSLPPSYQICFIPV

[10] = cryopreserved hepatocytes, read-out: % Remaining at 30 min

CYP2C19, sequence (P33261 whole entry): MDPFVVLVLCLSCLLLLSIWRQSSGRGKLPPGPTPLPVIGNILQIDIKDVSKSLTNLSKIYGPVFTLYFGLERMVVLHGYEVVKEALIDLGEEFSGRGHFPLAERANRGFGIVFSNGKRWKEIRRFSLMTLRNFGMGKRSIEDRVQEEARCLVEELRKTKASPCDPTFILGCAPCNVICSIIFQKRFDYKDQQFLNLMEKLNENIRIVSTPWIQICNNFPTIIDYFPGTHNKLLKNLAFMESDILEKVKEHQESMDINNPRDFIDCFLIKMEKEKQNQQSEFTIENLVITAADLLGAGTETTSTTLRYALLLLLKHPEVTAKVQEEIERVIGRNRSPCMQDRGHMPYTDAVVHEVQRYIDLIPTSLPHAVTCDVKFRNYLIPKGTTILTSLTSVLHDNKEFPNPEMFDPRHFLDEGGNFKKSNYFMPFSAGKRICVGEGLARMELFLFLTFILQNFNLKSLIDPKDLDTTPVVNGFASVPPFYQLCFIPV

half-life at 2 µM (in vitro [1]): 5.68 min
remaining at 2 h, 2 µM (in vitro [1]): 23.9%
Fold Increase (Enzyme Activity) Lot HH1086 (CYP1A2; 2 µM): 0.682 fold
Fold Increase (Enzyme Activity) Lot HH1142 (CYP1A2; 2 µM): 1.33 fold
Fold Increase (Enzyme Activity) Lot HH1144 (CYP1A2; 2 µM): 1.73 fold
Fold Increase (Enzyme Activity) Mean (CYP1A2; 2 µM): 1.25 fold
Fold Increase (Enzyme Activity) Lot HH1086 (CYP1A2; 10 µM): 1.88 fold
Fold Increase (Enzyme Activity) Lot HH1142 (CYP1A2; 10 µM): 5.19 fold
Fold Increase (Enzyme Activity) Lot HH1144 (CYP1A2; 10 µM): 3.32 fold
Fold Increase (Enzyme Activity) Mean (CYP1A2; 10 µM): 3.46 fold
Fold Increase (Enzyme Activity) Lot HH1086 (CYP1A2; 25 µM): 2.46 fold
Fold Increase (Enzyme Activity) Lot HH1142 (CYP1A2; 25 µM): 5.98 fold
Fold Increase (Enzyme Activity) Lot HH1144 (CYP1A2; 25 µM): 3.65 fold
Fold Increase (Enzyme Activity) Mean (CYP1A2; 25 µM): 4.03 fold
CLint scaled ([2]; 2 μM): 465 mL/min/kg
half-life at 2 µM ([2]; cryopreserved hepatocytes): 12.1 min
remaining at 0.5 h, 2 µM [2, 10]: 18.5%
% Stability in Matrix (2.5 h) ([3]; 37 °C): 36.6%
% Protein Bound Mean ± SD ([3]; 2.5 h at 37 °C): 32.8 ± 9.4%
% Protein Free Mean ± SD ([3]; 2.5 h at 37 °C): 67.2 ± 9.4%
fraction unbound at 2.5 h, 2 µM [4]: 0.672 ± 0.094
half-life at 2 µM (in vitro [5]): 82.5 min
remaining at 2 h, 2 µM (in vitro [5]): 36.3%
half-life at 2 µM (in vitro [6]): 52.7 min
remaining at 2 h, 2 µM (in vitro [6]): 21.9%
remaining at 2.5 h, 2 µM ([7]; pH 7.4): 14.6%
fraction unbound at 2.5 h, 2 µM ([7]; pH 7.4, Fu (Unbound Fraction) Mean ± SD, CD-1 mouse plasma (K2EDTA), 2 μM, 2.5 h at 37 °C): 0.847 ± 0.246
% Protein Bound Mean ± SD [8]: 15.3% and 15.3 ± 24.6%
% Protein Free Mean ± SD [8]: 84.7 ± 24.6%
% Inhibition at 50 µM No PI + NADPH (CYP2C19): −26.4%
% Inhibition at 50 µM No PI − NADPH (CYP2C19): −9.4%
% Inhibition at 50 µM PI + NADPH (CYP2C19): −6.0%
% Inhibition at 50 µM PI − NADPH (CYP2C19): 19.9%
half-life at 2 µM ([9]; cryopreserved hepatocytes): 10.7 min
remaining at 0.5 h, 2 µM [9, 10]: 16%
CLint scaled ([9]; read-out: CLint (L/hr/kg) (converted)): 42 L/h/kg
CLint scaled ([9]; read-out: CLint (mL/min/kg)): 41.9 L/h/kg
% Inhibition at 50 µM No PI + NADPH (CYP2C8): 18.7%
% Inhibition at 50 µM No PI − NADPH (CYP2C8): 14.0%
% Inhibition at 50 µM PI + NADPH (CYP2C8): 9.0%
% Inhibition at 50 µM PI − NADPH (CYP2C8): 11.4%
Sequence: LRKLRKRLLRLVGRQLEEFL [HM-10/10, LRKLRKRLLRLVGRQLEEFL]
